# Measurements from patent US20080300235A1, “FXR Agonists for Reducing LOX-1 Expression” (Wyeth, priority 2007, published 2008).
# Tests used:
# LOX-1 [1] = assay: Hepatic LOX-1 mRNA expression in LDLR-/- mice fed a western diet; format: in vivo, mouse; conditions: liver, LDLR-/- (LDLRKO) mice, western diet 7 days, increasing concentrations of compound, FIG. 1
# Description: (§1) Since LOX-1 is regulated by oxLDL, LOX-1 mRNA expression was monitored in liver from LDLR−/− (LDLRKO) mice fed a western diet for 7 days.
# VCAM-1 [2] = assay: Expression of LOX-1 target gene VCAM-1 (FIG. 2); format: in vivo, mouse
# LOX-1 [3] = assay: LOX-1 expression in liver and kidney of diabetic KKAy mice; format: in vivo, mouse
# Method: To determine whether FXR agonists could block LOX-1 gene expression under other settings, the regulation of LOX-1 by FXR was studied in the diabetic mouse strain, KKAy. […] The renal regulation of LOX-1 was also determined since FXR is also expressed in the kidney.
# VCAM-1 [4] = assay: Hepatic VCAM-1 gene expression by real-time PCR in FXR KO or wildtype mice; format: in vivo, mouse; conditions: male FXR KO or wildtype mice, chow diet with 0.5% chenodeoxycholic acid (CA), 30 mpk orally daily 7 days, FIG. 6
# Method: (§2) Male FXR deficient (FXR KO) or wildtype mice on a chow diet supplemented with 0.5% chenodeoxycholic acid (CA) were treated orally daily with 30 mpk of Compound A for 7 days, and hepatic gene expression of LOX-1 and VCAM-1 was determined by real-time PCR.
# soluble LOX-1 (sLOX-1) = assay: Serum soluble LOX-1 (sLOX-1) by ELISA based assay in mouse strains; format: in vivo; conditions: FIG. 5B
# Description: Moreover, the expression of soluble LOX-1 (sLOX-1) in the serum was also monitored using an ELISA based assay after Compound A treatment. […] (FIG. 5B).
# CD36 = assay: Expression of oxLDL hepatic scavenger receptor CD36 (FIG. 3); format: in vivo, mouse; conditions: specificity control
# Description: as §1
# Importantly, the regulation of LOX-1 by FXR was specific, since expression of another oxLDL hepatic scavenger receptor, CD36, was not affected by compound A (FIG. 3).
# LOX-1 [5] = assay: Hepatic LOX-1 gene expression by real-time PCR in FXR KO or wildtype mice; format: in vivo, mouse; conditions: male FXR KO or wildtype mice, chow diet with 0.5% chenodeoxycholic acid (CA), 30 mpk orally daily 7 days, FIG. 6
# Method: as §2
structure (smiles),measurement,setting,value
"CC(C)OC(=O)C1=CN(C(=O)c2ccc(F)c(F)c2)CC(C)(C)c2c1[nH]c1ccccc21 [Compound A, isopropyl 3-(3,4-difluorobenzoyl)-1,1-dimethyl-1,2,3,6-tetrahydroazepino[4,5-b]indole-5-carboxylate]",LOX-1 mRNA induction by the western diet,LOX-1 [1],dose dependently inhibited
same,VCAM-1 (LOX-1 target gene) expression,VCAM-1 [2],significantly inhibited
same,hepatic LOX-1 expression,"LOX-1 [3]; chow diet, 7 days treatment, FIG. 4A",significant repression
same,renal LOX-1 expression,"LOX-1 [3]; kidney, FIG. 4B",significantly inhibited
same,"inhibition of hepatic VCAM-1 gene expression, FXR KO vs wildtype",VCAM-1 [4],dependent upon FXR
same,sLOX-1 reduction in FXR KO mouse strain,soluble LOX-1 (sLOX-1); FXR KO mouse strain,dependent upon FXR
same,serum sLOX-1,"soluble LOX-1 (sLOX-1); various mouse strains, high fat diet, 30 mpk orally daily for 7 days",significantly reduced
same,CD36 expression,CD36,not affected
same,"inhibition of hepatic LOX-1 gene expression, FXR KO vs wildtype",LOX-1 [5],dependent upon FXR
